System: moderate-to-severe chronic spontaneous urticaria (CSU)
Experiment: Phase 2 CSU study: hives severity score over 7 days (HSS7)
Type: in vivo, human
Design: key to HSS7 Change from baseline, Median / HSS7, Median / HSS7, Max / HSS7 Change from baseline, Q1 / HSS7 Change from baseline, Q3 / HSS7 Change from baseline, Max: 7-day sum of daily hive scores, each 0 = none to 3 = >50 hives
Excerpt: The study comprises a 12 week, randomized, double-blind, placebo-controlled, multi-center, dose-ranging efficacy and safety phase, followed by a 40 week open label extension (OLE) phase (see FIG. 1).
The study consists of three phases and an optional OLE phase.
The UAS is a validated PRO measure. The daily UAS is the sum of the daily Hive Severity Score (HSS, ranging from 0=None to 3=more than 50 hives) and the daily Itch Severity Score (ISS, ranging from 0=None to 3=intense), the 2 key urticaria signs and symptoms which are wheals and itch. The daily UAS scores range from 0 to 6 point/day. Daily UAS scores are summed over 7-day period to create the UAS7, ranging from 0 to 42, and are composed of the HSS7 and ISS7 components. […] Patients were to complete the UAS using the e-diary. The e-diary was to be used once daily on the same time of each day recording of participant's answers to the urticaria activity score over 7 days (UAS7) questionnaire. For participants who entered the OLE phase, their answers to the UAS7 questionnaire were also to be collected from Week 20 to Week24 and from Week 48 to Week 52.
The following secondary endpoints were to be analyzed using the same approach as for the primary endpoint: • Change from baseline in UAS7 at Week 4 • Change from baseline in UAS7 at Week 12 (for US and US reference countries) • Change from baseline in ISS7 at Week 12 (except US and US reference countries) • Change from baseline in HSS7 at Week 12

[1] = Week 1, 400 mg BID, Omalizumab-Naïve Population
[2] = Week 1, 400 mg BID, Patients with Prior Omalizumab Use
[3] = Week 1, 400 mg QPM, Omalizumab-Naïve Population
[4] = Week 1, 400 mg QPM, Patients with Prior Omalizumab Use
[5] = Week 1, 400 mg TID, Omalizumab-Naïve Population
[6] = Week 1, 400 mg TID, Patients with Prior Omalizumab Use
[7] = Week 2, 400 mg BID, Omalizumab-Naïve Population
[8] = Week 2, 400 mg BID, Patients with Prior Omalizumab Use
[9] = Week 2, 400 mg QPM, Omalizumab-Naïve Population
[10] = Week 2, 400 mg QPM, Patients with Prior Omalizumab Use
[11] = Week 2, 400 mg TID, Omalizumab-Naïve Population
[12] = Week 2, 400 mg TID, Patients with Prior Omalizumab Use
[13] = Week 3, 400 mg BID, Omalizumab-Naïve Population
[14] = Week 3, 400 mg BID, Patients with Prior Omalizumab Use
[15] = Week 3, 400 mg QPM, Omalizumab-Naïve Population
[16] = Week 3, 400 mg QPM, Patients with Prior Omalizumab Use
[17] = Week 3, 400 mg TID, Omalizumab-Naïve Population
[18] = Week 3, 400 mg TID, Patients with Prior Omalizumab Use

Compound: CC(C)(C=C(C#N)C(=O)N1CCC[C@@H](n2nc(-c3ccc(Oc4ccccc4)cc3F)c3c(N)ncnc32)C1)N1CCN(C2COC2)CC1 [rilzabrutinib, (R)-2-[3-[4-amino-3-(2-fluoro-4-phenoxy-phenyl)pyrazolo[3,4-d]pyrimidin-1-yl]piperidine-1-carbonyl]-4-methyl-4-[4-(oxetan-3-yl)piperazin-1-yl]pent-2-enenitrile]
- HSS7 change from baseline at Week 12, LS Mean Diff vs. placebo (Omalizumab-naïve Population, 400 mg TID, ANCOVA): −3.24
- HSS7, Mean (SD) [1]: 9.26 (5.76)
- HSS7 Change from baseline, Mean (SD) [1]: −5.02 (4.53)
- HSS7 Change from baseline, Median [1]: −5.00
- HSS7 Percent change from baseline, Mean (SD) [1]: −36.53 (34.65) %
- HSS7 Percent change from baseline, Median [1]: −28.57%
- HSS7, Mean (SD) [2]: 9.67 (6.41)
- HSS7 Change from baseline, Mean (SD) [2]: −5.50 (6.41)
- HSS7 Change from baseline, Median [2]: −3.00
- HSS7 Percent change from baseline, Mean (SD) [2]: −34.45 (41.48) %
- HSS7 Percent change from baseline, Median [2]: −17.65%
- HSS7, Mean (SD) [3]: 10.73 (4.90)
- HSS7 Change from baseline, Mean (SD) [3]: −4.00 (4.92)
- HSS7 Change from baseline, Median [3]: −3.00
- HSS7 Percent change from baseline, Mean (SD) [3]: −25.31 (29.00) %
- HSS7 Percent change from baseline, Median [3]: −20.00%
- HSS7, Mean (SD) [4]: 12.00 (NC)
- HSS7, Median [4]: 12.00
- HSS7 Change from baseline, Mean (SD) [4]: −8.00 (NC)
- HSS7 Change from baseline, Median [4]: −8.00
- HSS7 Percent change from baseline, Mean (SD) [4]: −40.00 (NC) %
- HSS7 Percent change from baseline, Median [4]: −40.00%
- HSS7, Mean (SD) [5]: 8.26 (4.91)
- HSS7, Median [5]: 8.00
- HSS7 Change from baseline, Mean (SD) [5]: −5.40 (5.44)
- HSS7 Change from baseline, Median [5]: −5.00
- HSS7 Percent change from baseline, Mean (SD) [5]: −36.74 (35.15) %
- HSS7 Percent change from baseline, Median [5]: −33.33%
- HSS7, Mean (SD) [6]: 4.83 (3.31)
- HSS7, Median [6]: 4.50
- HSS7 Change from baseline, Mean (SD) [6]: −11.19 (4.74)
- HSS7 Percent change from baseline, Mean (SD) [6]: −70.33 (16.48) %
- HSS7 Percent change from baseline, Median [6]: −71.43%
- HSS7, Mean (SD) [7]: 9.27 (5.49)
- HSS7, Median [7]: 7.50
- HSS7 Change from baseline, Mean (SD) [7]: −5.10 (4.74)
- HSS7 Change from baseline, Median [7]: 5.50
- HSS7 Percent change from baseline, Mean (SD) [7]: −35.29 (34.55) %
- HSS7 Percent change from baseline, Median [7]: −37.50%
- HSS7, Mean (SD) [8]: 8.17 (7.08)
- HSS7, Median [8]: 9.50
- HSS7 Change from baseline, Mean (SD) [8]: −7.00 (8.15)
- HSS7 Change from baseline, Median [8]: −4.50
- HSS7 Percent change from baseline, Mean (SD) [8]: −42.16 (46.38) %
- HSS7 Percent change from baseline, Median [8]: −26.47%
- HSS7, Mean (SD) [9]: 10.90 (4.97)
- HSS7 Change from baseline, Mean (SD) [9]: −3.83 (4.91)
- HSS7 Change from baseline, Median [9]: 3.00
- HSS7 Percent change from baseline, Mean (SD) [9]: −23.50 (30.60) %
- HSS7 Percent change from baseline, Median [9]: −21.43%
- HSS7, Mean (SD) [10]: 13.00 (NC)
- HSS7, Median [10]: 13.00
- HSS7 Change from baseline, Mean (SD) [10]: −7.00 (NC)
- HSS7 Change from baseline, Median [10]: −7.00
- HSS7 Percent change from baseline, Mean (SD) [10]: −35.00 (NC) %
- HSS7 Percent change from baseline, Median [10]: −35.00%
- HSS7, Mean (SD) [11]: 7.25 (5.05)
- HSS7, Median [11]: 7.00
- HSS7 Change from baseline, Mean (SD) [11]: −6.40 (5.94)
- HSS7 Change from baseline, Median [11]: −6.00
- HSS7 Percent change from baseline, Mean (SD) [11]: −44.30 (37.78) %
- HSS7 Percent change from baseline, Median [11]: −42.86%
- HSS7, Mean (SD) [12]: 2.83 (3.31)
- HSS7, Median [12]: 1.50
- HSS7 Change from baseline, Mean (SD) [12]: −13.19 (5.74)
- HSS7 Change from baseline, Median [12]: −14.00
- HSS7 Percent change from baseline, Mean (SD) [12]: -82.7%
- HSS7 Percent change from baseline, Median [12]: −81.38%
- HSS7, Mean (SD) [13]: 8.55 (6.09)
- HSS7, Median [13]: 7.00
- HSS7 Change from baseline, Mean (SD) [13]: −5.73 (5.31)
- HSS7 Change from baseline, Median [13]: −5.00
- HSS7 Percent change from baseline, Mean (SD) [13]: −40.65 (36.39) %
- HSS7 Percent change from baseline, Median [13]: −41.67%
- HSS7, Mean (SD) [14]: 7.67 (7.00)
- HSS7, Median [14]: 7.50
- HSS7 Change from baseline, Mean (SD) [14]: −7.50 (8.22)
- HSS7 Change from baseline, Median [14]: −6.00
- HSS7 Percent change from baseline, Mean (SD) [14]: −45.10 (46.71) %
- HSS7 Percent change from baseline, Median [14]: −35.29%
- HSS7, Mean (SD) [15]: 10.41 (4.97)
- HSS7, Median [15]: 9.00
- HSS7 Change from baseline, Mean (SD) [15]: −4.32 (4.60)
- HSS7 Change from baseline, Median [15]: −2.00
- HSS7 Percent change from baseline, Mean (SD) [15]: −27.98 (28.68) %
- HSS7 Percent change from baseline, Median [15]: −28.57%
- HSS7, Mean (SD) [16]: 10.00 (NC)
- HSS7 Change from baseline, Mean (SD) [16]: −10.00 (NC)
- HSS7 Change from baseline, Median [16]: −10.00
- HSS7 Percent change from baseline, Mean (SD) [16]: −50.00 (NC) %
- HSS7 Percent change from baseline, Median [16]: −50.00%
- HSS7, Mean (SD) [17]: 7.03 (4.82)
- HSS7, Median [17]: 7.00
- HSS7 Change from baseline, Mean (SD) [17]: −6.63 (6.22)
- HSS7 Change from baseline, Median [17]: −7.00
- HSS7 Percent change from baseline, Mean (SD) [17]: −47.46 (36.18) %
- HSS7 Percent change from baseline, Median [17]: −48.81%
- HSS7, Mean (SD) [18]: 3.39 (2.63)
- HSS7, Median [18]: 2.67
- HSS7 Change from baseline, Mean (SD) [18]: −12.64 (6.13)
- HSS7 Change from baseline, Median [18]: −14.50
- HSS7 Percent change from baseline, Mean (SD) [18]: −76.71 (14.38) %
- HSS7 Percent change from baseline, Median [18]: −71.43%

— US20260256792A1, “TREATMENT OF CHRONIC SPONTANEOUS URTICARIA BY ADMINISTERING (R)-2-[3-[4-AMINO-3-(2-FLUORO-4-PHENOXY-PHENYL)PYRAZOLO[3,4-D]PYRIMIDIN-1-YL]PIPERIDINE-1-CARBONYL]-4-METHYL-4-[4-(OXETAN-3-YL)PIPERAZIN-1-YL]PENT-2-ENENITRILE” (priority 2023, published 2026)
